The values below come from US11533913B2, “Treating water stress in plants” (Rothamsted Research Limited, priority 2015, dated 2022).

In test [1] the test system is Spring wheat (Triticum aestivum Cadenza). Kind of test: Recovery response: regrowth (biomass) of water stressed wheat plants after re-watering. In kind it is in vivo. As to conditions: 4-week-old wheat plants sprayed once with 30 mL of 1 mM after 9 days of drought; watering resumed 1 day after treatment. On the procedure:
(§1) Spring wheat (Triticum aestivum Cadenza) seeds were sown in Rothamsted Prescription Compost Mix (75% medium grade (L+P) peat, 12% screened sterilised loam, 3% medium grade vermiculite, 10% grit (lime-free), 3.5 kg Osmocote Exact 3-4 month/m^3 (Scott's UK Professional, Ipswich, Suffolk, www.scottinternational.com), 0.5 kg PG mix/m^3 (Hydro Agri Ltd., Immingham, UK), Wetting agent and Lime) and grown in controlled environment conditions with a photoperiod of 16 hours light, 8 hours dark, day/night temperatures of 20° C./16° C., photon flux density of 600 μmol m^−2 s^−1, and ambient relative humidity. Once the plants had reached Feekes stage 4, water was withheld for 10 days. On the 9th day, 30 ml 1 mM solutions of oNPE-T6P and DMNBT6P were applied to all above-ground biomass, on the 10th day the watering schedule was reinstated. Plants were harvested to measure biomass production every 5 days for 30 days after watering was reinstated. Both experiments were completed in replicates of 6.
Analysis of Variance (ANOVA) was applied to data to test for differences between treatments. A natural log transformation was used where necessary to ensure constant variance. The GENSTAT statistical system was used for this analysis (2011, 14th edition, ©VSN International Ltd, Hemel Hempstead, UK).
The effect of the signalling precursors upon plant resilience and recovery were tested. Drought is still the biggest global factor that limits crop yields, even in developed countries, such as the UK (Boyer, 1982, Science 218: 443-448).

Test [2] has the same test system. Kind of test: Resurrection response: regrowth of new tissue from plants cut back after drought treatment. It is filed as in vivo. As to conditions: one application of 1 mM one day prior to re-watering, cut at 5 days after re-watering, left to regrow for 10 days. On the procedure:
as §1
Analysis of Variance (ANOVA) was applied to data to test for differences between treatments. A natural log transformation was used where necessary to ensure constant variance. The GENSTAT statistical system was used for this analysis (2011, 14th edition, ©VSN International Ltd, Hemel Hempstead, UK). […]

Each structure is given as a SMILES string.

As for `O=P(O)(O)OC[C@H]1O[C@H](O[C@H]2O[C@H](CO)[C@@H](O)[C@H](O)[C@H]2O)[C@H](O)[C@@H](O)[C@@H]1O` [Compound T6P, trehalose 6-phosphate], in test [1], the “regrowth (recovery response) following resumption of watering” value is reported as “identical results to use of water alone”. Also, the “regrowth (resurrection response) of new tissue from plants cut back after drought treatment” value in test [2] was “identical results to use of water alone”.
`COc1cc(COP(=O)(OCc2cc(OC)c(OC)cc2[N+](=O)[O-])OC[C@H]2O[C@H](O[C@H]3O[C@H](CO)[C@@H](O)[C@H](O)[C@H]3O)[C@H](O)[C@@H](O)[C@@H]2O)c([N+](=O)[O-])cc1OC` [DMNB-T6P 2, 6-O-bis-(4,5-dimethoxy-2-nitrobenzyloxyphosphoryl)-D-trehalose]: the “regrowth (recovery response) following resumption of watering” value in test [1] is “the effects were dramatic”.
Still for that read-out and setting: with `CC(OP(=O)(OC[C@H]1O[C@H](O[C@H]2O[C@H](CO)[C@@H](O)[C@H](O)[C@H]2O)[C@H](O)[C@@H](O)[C@@H]1O)OC(C)c1ccccc1[N+](=O)[O-])c1ccccc1[N+](=O)[O-]` (stereo partly drawn) [oNPE-T6P 3, 6-O-bis[1-(2-nitrophenyl)-ethoxyphosphoryl]-D-trehalose] the entry was “the effects were dramatic”.
